# Assay results taken from patent US4625016A, “Collagen inhibiting compositions and processes for manufacturing and using same” (University of Medicine and Dentistry of New Jersey, priority 1983, dated 1986).
# Assays:
# KB cells = settings: as disclosed in 266 Nature 63 (1977); cited from earlier work
# [1] = tested on: normal human skin fibroblasts; test: Attachment and growth of human skin fibroblasts in plastic culture flasks (assay of collagen synthesis); format: cell-based
# Text: The principle of the test system is that when collagen-producing cells, such as normal skin fibroblasts are introduced into a plastic flask containing a nutrient medium, the cells attach to the surface of the flask and grow. However, firm attachment of normal fibroblasts to the surface of the flask requires that the cells first synthesize a "pad" comprised of collagen fibers and several other materials through which the collagen producing cells attach to the plastic surface. If synthesis of normal collagen fibers is prevented, the collagen-producing cells, such as the normal skin fibroblasts, will not attach and therefore will not grow. […] The manner in which cis-4-hydroxy-L-proline produces these effects has been disclosed in 336 Biochimica et Biophysica Acta 234, (1974); 174 Archives of Biochemistry and Biophysics 381 (1976); 226 Nature 63 (1977); and 272 Nature 622 (1978).
# None of the three polymeric compositions are soluble in water and are consequently dissolved in 50% acetic acid and water. The solution is placed dropwise on a microscopic coverslip and the solvent evaporated with warm air from a hair dryer. The coverslip, coated with the composition, is then placed in a plastic culture flask (75 cm^2; Falcon). From 5×10^5 to 10.5×10^5 normal human fibroblasts in 2 ml of cell culture medium are added to the flask. The flask is incubated at 37° C. in 5% carbon dioxide and 95% air for 3 to 5 days, and the number of cells in the flask counted. Control sample contained microscopic coverslips treated with an equal volume of solvent and air-dried.
compound,measurement,setting,value
"O=C(O)[C@@H]1C[C@H](O)CN1 [cis-4-Hydroxy-L-proline, cis-4-hydroxy-L-proline]",Growth of cells which do not produce collagen (in words),KB cells,not inhibited
same,"Cells per flask, Final","[1]; Expt. 1, dosage level 250 μg/ml, initial 5.0 × 10^5, 3 to 5 days, None: 67",< 1 × 10^5
same,"Cells per flask, Final","[1]; Expt. 2, dosage level 100 μg/ml, initial 10.3 × 10^5, None: 98",2.2 × 10^5
same,"Cells per flask, Final","[1]; Expt. 3, dosage level 50 μg/ml, initial 7.0 × 10^5, None: 56",12 × 10^5
same,"Cells per flask, Final","[1]; Expt. 3, dosage level 150 μg/ml, initial 7.0 × 10^5, None: 56",1.3 × 10^5
same,Attachment and growth of normal fibroblasts (in words),[1]; no dose stated,prevents attachment and growth
